Assay results published in article PMC10669656, “ADMET and Solubility Analysis of New 5-Nitroisatine-Based Inhibitors of CDK2 Enzymes” (Biomedicines, 2023).

Assay: PARIS III toxicological and environmental analysis of solvents (HTPI, EI)
Design: species or system human
Settings: binary solvent with water
Text: The examined chemical compounds are 2-trifluoromethyl-N′-[5-nitro-2-oxo-1,2-dihydro-3H-indol-3-ylidene]benzohydrazide (1), 3-Amino-N′-[5-nitro-2-oxo-1,2-dihydro-3H-indol-3-ylidene]benzohydrazide (2), and 3-nitro-N′-[5-nitro-2-oxo-1,2-dihydro-3H-indol-3-ylidene]benzohydrazide (3). The evaluation of the descriptors defining molecular properties, absorption, metabolism, and toxicity of considered drugs was estimated with the use of ADMETlab 2.0 [9]. The quantitative structure–activity relationship (QSAR) algorithms implemented in used software based on the chemical structures of considered drugs described by SMILES definitions are presented in Figure 1. The method of interpretation and definitions of particular descriptors obtained during the analysis are included in the Results and Discussion sections. The toxicological analysis of solvents was realized with the use of the Solvent Substitution Software Tool, PARIS III [40, 41]. The characteristics of the Human Toxicity Potential by Ingestion (HTPI) of individual solvents and sets of binary solvents analyzed in this work were obtained based on the values of LD50 for particular solvents.
Additionally, the values of the Environmental Index (EI) were also estimated based on a set of eight environmental impact scores, which included, among others, HTPI, terrestrial toxicity potential, and aquatic toxicity potential. In the case of Equation (2), the σj is the weight for considered impact j, the φi,j stands for the value of normalized impact for considered solvent. (2) EIi=∑j=18σjφi,j¯

Row | Compound | % HTPI x1.0 (relative to the pure organic solvent) (x* 0.1) | % HTPI x1.0 (relative to the pure organic solvent) (x* 0.2) | % HTPI x1.0 (relative to the pure organic solvent) (x* 0.3) | % HTPI x1.0 (relative to the pure organic solvent) (x* 0.4) | % HTPI x1.0 (relative to the pure organic solvent) (x* 0.5) | % HTPI x1.0 (relative to the pure organic solvent) (x* 0.6) | % HTPI x1.0 (relative to the pure organic solvent) (x* 0.7) | % HTPI x1.0 (relative to the pure organic solvent) (x* 0.8) | % HTPI x1.0 (relative to the pure organic solvent) (x* 0.9) | % HTPI x1.0 (relative to the pure organic solvent) (x* 1.0)
1 | CN1CCCC1=O [NMP, N-methyl-2-pyrrolidone] | 39.1% | 58.8% | 70.8% | 79.1% | 84.9% | 89.4% | 93.0% | 95.9% | 98.1% | 100.0%
2 | C[S+](C)[O-] [DMSO, dimethyl sulfoxide] | 37.7% | 55.8% | 67.8% | 76.4% | 83.1% | 87.7% | 91.5% | 95.4% | 97.7% | 100.0%
